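Growth conditions: 96-well plates. Treatment: test compound, 48 hours, 5 concentrations. Analysis: linear interpolation between bracketing concentrations; unreached endpoints set to highest concentration. TGI denotes the concentration required for complete inhibition of growth.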
Assays:
Assay in all cases: growth of human tumour cells (NCI), 48 h
UO-31 renal = tested on: UO-31 renal
KM12 colon = tested on: KM12 colon
LOX IMVI melanoma = tested on: LOX IMVI melanoma
RPMI-8226 leukemia = tested on: RPMI-8226 leukemia
RXF 393 renal = tested on: RXF 393 renal
KM20L2 colon = tested on: KM20L2 colon
NCI-H23 lung = tested on: NCI-H23 lung
M19-MEL melanoma = tested on: M19-MEL melanoma
HOP-62 NSCLC = tested on: HOP-62 NSCLC
SF-268 CNS = tested on: SF-268 CNS
DMS 114 small cell lung = tested on: DMS 114 small cell lung
OVCAR-8 ovarian = tested on: OVCAR-8 ovarian
HOP-18 NSCLC = tested on: HOP-18 NSCLC
U251 CNS = tested on: U251 CNS
SNB-75 CNS = tested on: SNB-75 CNS
SK-MEL-28 melanoma = tested on: SK-MEL-28 melanoma
HL-60(TB) leukemia = tested on: HL-60(TB) leukemia
OVCAR-4 ovarian = tested on: OVCAR-4 ovarian
K-562 leukemia = tested on: K-562 leukemia
M14 melanoma = tested on: M14 melanoma
XF 498 CNS = tested on: XF 498 CNS
786-0 renal = tested on: 786-0 renal
SNB-78 CNS = tested on: SNB-78 CNS
MOLT-4 leukemia = tested on: MOLT-4 leukemia
HT29 colon = tested on: HT29 colon
MALME-3M melanoma = tested on: MALME-3M melanoma
UACC-257 melanoma = tested on: UACC-257 melanoma
SF-539 CNS = tested on: SF-539 CNS
UACC-62 melanoma = tested on: UACC-62 melanoma
A549 NSCLC = tested on: A549 NSCLC
SNB-19 CNS = tested on: SNB-19 CNS
HCT-116 colon = tested on: HCT-116 colon
NCI-H522 lung = tested on: NCI-H522 lung
LXFL 529 NSCLC = tested on: LXFL 529 NSCLC
SW-620 colon = tested on: SW-620 colon
SK-MEL-5 melanoma = tested on: SK-MEL-5 melanoma
IGROV1 ovarian = tested on: IGROV1 ovarian
NCI-H460 lung = tested on: NCI-H460 lung
OVCAR-3 ovarian = tested on: OVCAR-3 ovarian
RXF-631 renal = tested on: RXF-631 renal
OVCAR-5 ovarian = tested on: OVCAR-5 ovarian
NCI-H226 lung = tested on: NCI-H226 lung
SK-MEL-2 melanoma = tested on: SK-MEL-2 melanoma
HCT-15 colon = tested on: HCT-15 colon
DMS 273 small cell lung = tested on: DMS 273 small cell lung
A498 renal = tested on: A498 renal
CAKI-1 renal = tested on: CAKI-1 renal
COLO 205 colon = tested on: COLO 205 colon
SN12C renal = tested on: SN12C renal
CCRF-CEM leukemia = tested on: CCRF-CEM leukemia
DLD-1 colon = tested on: DLD-1 colon
SF-295 CNS = tested on: SF-295 CNS
SR leukemia = tested on: SR leukemia
TK-10 renal = tested on: TK-10 renal
EKVX NSCLC = tested on: EKVX NSCLC
HOP-92 NSCLC = tested on: HOP-92 NSCLC
SK-OV-3 ovarian = tested on: SK-OV-3 ovarian
ACHN renal = tested on: ACHN renal

Measured: TGI

CC1(C)COC2(OC1)C1=NS(=O)(=O)CC13CCC2C3(C)C (centres undefined)
> 100 µM: all assays above

Nc1nc(=S)c2c(ncn2CC(O)CO)[nH]1 (centres undefined)
not listed: NCI-H23 lung | MOLT-4 leukemia
> 100 µM: all other assays above
